In patent US20260144883A1, “ANTI-TROP2/EGFR ANTIBODIES AND USES THEREOF” (XADCERA BIOPHARMACEUTICAL (SUZHOU) CO., LTD., priority 2022, published 2026):

Tests used:
Assay in all cases: In vitro killing activity (CellCounting-Lite 2.0, 7 days)
Assay type in all cases: cell-based
[1] = tested on: HCC827 cells; conditions: Homo sapiens, 168 h
[2] = tested on: A431 cells; conditions: Homo sapiens, A-431, 168 h
[3] = tested on: Panc 02.03 cells; conditions: Homo sapiens, Panc 02.03, 168 h
[4] = tested on: NCI-H292 cells; conditions: Homo sapiens, 168 h

`CC[C@@]1(O)C(=O)OCc2c1cc1n(c2=O)Cc2c-1nc1ccc(N)c3c1c2CCO3` [CPT2, (S)-4-amino-9-ethyl-9-hydroxy-1,9,12,15-tetrahydro-13H-pyrano[4,3,2-de]pyrano[3′,4′:6,7]indolizino[1,2-b]quinoline-10,13(2H)-dione] gave an IC50 [1] of 1.69 nM, an IC50 [2] of 1.38 nM and an IC50 [3] of 0.981 nM. It also gave an IC50 [4] of 0.728 nM.
